Values of other authors in patent US20210123868A1, “REAGENT COMPOSITION FOR PH MEASUREMENT” (MIURA CO., LTD., priority 2018, published 2021).

Conditions: value at 25° C.

acid dissociation constant (pKa) | Compound
4.7 | Cc1c(C2(c3cc(Br)c(O)c(Br)c3C)OS(=O)(=O)c3ccccc32)cc(Br)c(O)c1Br [bromocresol green]
6.3 | Cc1cc(C2(c3cc(C)c(O)c(Br)c3)OS(=O)(=O)c3ccccc32)cc(Br)c1O [bromocresol purple]
11.06 | alizarin yellow
